Laboratory results published in US7906547B2, “Azabicylic compounds, a process for their preparation and pharmaceutical compositions containing them” (Les Laboratoires Servier, priority 2008, dated 2011).
Where a name gives a salt, the structure may show the parent alone.

Experiments:
[1] = tested on: NMRI mouse; assay: Tail suspension test in the NMRI mouse; type: in vivo; details: 10 mg/kg IP 24 hours and 30 minutes before suspension, 6 minutes
Protocol: The tail suspension test in the mouse (Porsolt et al., Arch. Int. Pharmacodyn., 1987, 288, 11) enables detection of psychopharmacological properties of compounds. NMRI mice are suspended by the tail, with the aid of a piece of adhesive tape, from a hook for 6 minutes: the immobility time is measured automatically with the aid of movement sensors. The animals are treated, by the intraperitoneal route, with the compounds of the invention or their carriers 24 hours and 30 minutes before they are suspended.

[2] = tested on: NMRI mouse; assay: Marble-burying test in the NMRI mouse; type: in vivo; details: 30 mg/kg IP 30 minutes before test, 30 minutes period
Protocol: The spontaneous marble-burying behaviour in the mouse is a very sensitive empirical test for antidepressant compounds (Sanchez and Meier, Psychopharmacology, 1997; 129: 197-205; Nicolas and Prinssen, Eur. J. Pharmacol., 2006, 547: 106-115). The mice are placed in individual cages in which there are 24 marbles and the number of marbles buried by each animal is determined for a period of 30 minutes. The animals are treated by the intraperitoneal route with the compounds of the present invention or their carriers 30 minutes before placing the animals in the cage containing marbles.

[3] = tested on: Sprague-Dawley rat; assay: Object recognition in the Sprague-Dawley rat; type: in vivo; details: 0.3 mg/kg PO, 60 minutes before each session, 24 hours between sessions
Source text: The object recognition test in the Sprague-Dawley rat (Behav. Brain Res., 1988, 31, 47-59) is based on the spontaneous exploratory activity of the animal and has the characteristics of episodic memory in humans. This memory test is sensitive to ageing (Eur. J. Pharmacol., 1997, 325, 173-180) and to cholinergic dysfunctions (Pharm. Biochem. Behav. 1996, 53(2), 277-283) and is based on the differences in the exploration of 2 objects of fairly similar shape—one familiar, the other new. Prior to the test, the animals are habituated to the environment (an enclosure without an object). In the course of a first session, the rats are placed (3 minutes) in the enclosure, in which there are 2 identical objects. The duration of exploration is measured for each object. In the course of the second session (3 minutes), 24 hours later, 1 of the 2 objects is replaced by a new object. The duration of exploration is measured for each object. The assessment criterion is the difference, Delta, expressed in seconds, between the exploration times for the new object and for the familiar object in the course of the second session.

[4] = tested on: Wistar rat; assay: Electroencephalogram recordings in the awake Wistar rat; type: in vivo; details: 3 mg/kg IP
Protocol: Electrodes are chronically implanted in adult male Wistar rats, being located at the surface of the frontal and parietal cortex. Cortical electroencephalogram (EEG) recordings are made in the rats placed in cages in a sound-proofed room. The compounds and carriers are administered in randomised manner by the intraperitoneal route at 10 o'clock on the same days with a minimum of 3 days between each administration, allowing each rat to be used as its own control. The absolute power of the slow delta activities (1-4 Hz), which predominate during slow sleep and disappear during wakefulness and paradoxical sleep, is averaged over successive periods of 30 minutes. Over 30 minutes, high and low values for the power of the slow delta activities are signs of […], respectively.

[5] = tested on: NMRI mouse; assay: Forced swimming test in the NMRI mouse; type: in vivo; details: 30 mg/kg IP 30 minutes before test, final 4 minutes of 6
Protocol: The forced swimming test is very widely used for detecting the antidepressant properties of compounds (Porsolt et al., Arch. Int. Pharmacodyn., 1977, 229, 327-336). The animals are placed for 6 minutes in cylinders filled with water (14 cm) and the immobility time is measured for the final 4 minutes by a video-tracking system. The compounds of the present invention or their carriers are administered by the intraperitoneal route 30 minutes before the mice are placed in the cylinder.

[6] = tested on: Wistar rat; assay: Social recognition in the Wistar rat; type: in vivo; details: second encounter after 2 hours
Source text: Initially described in 1982 (J. Comp. Physiol., 1982, 96, 1000-1006), the social recognition test has subsequently been proposed by various authors (Psychopharmacology, 1987, 91, 363-368; Psychopharmacology, 1989, 97, 262-268) for studying the mnemocognitive effects of new compounds. The test is based on the natural expression of the olfactory memory of the rat and its natural tendency to forget and allows evaluation of memorisation, by recognition of a young congeneric animal, by an adult rat. A young rat (21 days), taken at random, is placed for 5 minutes in the cage housing an adult rat. With the aid of a video device, the experimenter observes the social recognition behaviour of the adult rat and measures its overall duration. The young rat is then removed from the adult rat's cage and is placed in its own cage until the second introduction. The adult rat is given the compound under test by the intraperitoneal route and, after 2 hours, is again brought into the presence (5 minutes) of the young rat. The social recognition behaviour is then observed again and its duration measured. The assessment criterion is the difference (T2−T1), expressed in seconds, between the “recognition” times of the 2 encounters.

[7] = tested on: Wistar rat; assay: Interaction with barbital in the Wistar rat; type: in vivo; details: 30 mg/kg PO 30 minutes before barbital 170 mg/kg IP, sleep measured for 4 hours
Protocol: The objective of this test is to determine the anti-sedative, awakening and/or anti-hypnotic properties of the compounds of the present invention. The rats are placed in individual cages and are given an injection of barbital (170 mg/kg IP). The duration of sleep is then measured for 4 hours after the injection of barbital, determined on the basis of loss of the righting reflex. The compounds of the invention or their carriers are administered by the oral route 30 minutes before the administration of barbital.

[8] = molecular target: T1, type H3 central histamine receptors (Mus musculus, UniProt P58406); assay: Cerebral levels of Nτ-methylhistamine in the NMRI mouse (ex vivo H3 antagonist activity); details: one hour after treatment, vs carrier
T1 construct: the brains are removed, frozen in liquid nitrogen, weighed and homogenised; from tissue; host or cells: brain of living NMRI mice (oral dosing)
T1 sequence (P58406 whole entry): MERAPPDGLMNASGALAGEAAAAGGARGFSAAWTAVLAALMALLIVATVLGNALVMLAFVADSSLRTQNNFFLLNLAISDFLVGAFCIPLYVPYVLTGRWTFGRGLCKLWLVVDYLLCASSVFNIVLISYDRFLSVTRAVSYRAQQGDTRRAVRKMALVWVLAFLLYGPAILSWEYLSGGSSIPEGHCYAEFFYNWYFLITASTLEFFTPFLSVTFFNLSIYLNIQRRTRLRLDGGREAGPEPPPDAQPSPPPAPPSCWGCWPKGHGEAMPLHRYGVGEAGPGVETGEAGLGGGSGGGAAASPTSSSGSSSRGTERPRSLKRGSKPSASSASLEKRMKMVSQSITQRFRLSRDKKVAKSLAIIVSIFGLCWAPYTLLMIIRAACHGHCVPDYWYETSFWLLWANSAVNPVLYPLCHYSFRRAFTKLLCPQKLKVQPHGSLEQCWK
Protocol: The purpose of this study, which was carried out in accordance with the method of Taylor et al. (Biochem. Pharm., 1992, 44, 1261-1267), is to evaluate the ex vivo activity of the compounds of the present invention as antagonists of type H3 central histamine receptors. […] An increase in the cerebral concentrations of N^τ-methylhistamine indicates an increase in the turn-over of histamine by blockage of the type H3 central histamine receptors.
NMRI mice (18-20 g) are treated with compounds of the present invention or with their carrier (20 ml/kg) by the oral route. One hour after the pharmacological treatment, the animals are sacrificed; the brains are removed, frozen in liquid nitrogen, weighed and homogenised in 0.1N HClO4 at 4° C. The homogenised products are centrifuged (15 000 g, 17 min, 4° C.). The supernatants are recovered and divided into aliquots. The aliquots are frozen in liquid nitrogen and stored at −80° C. until they are analysed.
Determination of the cerebral levels of N^τ-methylhistamine is carried out by capillary electrophoresis. The tissue levels of N^τ-methylhistamine are expressed in μg/g of fresh brain. The comparison of the cerebral levels of N^τ-methylhistamine between animals treated with the carrier (controls) and animals treated with compounds of the present invention is carried out by single-factor variance analysis followed, if necessary, by a complementary analysis (Dunnett's test).

increase in endogenous cerebral concentrations of Nτ-methylhistamine ([8]; 10 mg/kg PO)	increase in endogenous cerebral concentrations of Nτ-methylhistamine ([8]; 30 mg/kg PO)	Compound	reduction in the immobility time [1]	decrease in the number of balls buried [2]	reduction in immobility [5]	reduction of the duration of sleeping caused by barbital [7]	other results
		NC(=O)c1ccc(OCCCN2C[C@H]3C[C@H]3C2)cc1 [Example 1, 4-{3-[(1R,5S)-3-Azabicyclo[3.1.0]hex-3-yl]propoxy}-benzamide hydrochloride]	59%	48%	76%		difference, Delta, between exploration times for the new object and the familiar object (second session) [3]: ~6 s; duration of the reduction in the power of the slow delta waves [4]: 120 min; difference (T2−T1) between the recognition times of the 2 encounters ([6]; 1 mg/kg IP): 21 s; difference (T2−T1) between the recognition times of the 2 encounters ([6]; 3 mg/kg IP): 26 s
		NC(=O)c1ccc(OCCN2C[C@H]3C[C@H]3C2)cc1 [Example 2, 4-{2-[(1R,5S)-3-Azabicyclo[3.1.0]hex-3-yl]ethoxy}benzamide]		99%			
		CC(=O)Nc1ccc(OCCCN2C[C@H]3C[C@H]3C2)cc1 [Example 4, N-(4-{3-[(1R,5S)-3-Azabicyclo[3.1.0]hex-3-yl]propoxy}phenyl)acetamide]	36%				
109%	200%	CC(=O)Nc1ccc(OCCN2C[C@H]3C[C@H]3C2)cc1 [Example 5, N-(4-{2-[(1R,5S)-3-Azabicyclo[3.1.0]hex-3-yl]ethoxy}phenyl)acetamide]	64%	49%	32%	−80%	
		CN(C)C(=O)c1ccc(OCCCCN2C[C@H]3C[C@H]3C2)cc1.O=C(O)C(=O)O [Example 8, 4-{4-[(1R,5S)-3-Azabicyclo[3.1.0]hex-3-yl]butoxy}-N,N-dimethyl-benzamide oxalate]				−79%	
		CNC(=O)c1ccc(OCCCCN2C[C@H]3C[C@H]3C2)cc1 [Example 12, 4-{4-[(1R,5S)-3-Azabicyclo[3.1.0]hex-3-yl]butoxy}-N-methylbenzamide]				−55%	
135%	303%	CC(=O)N(C)c1ccc(OCCCN2C[C@H]3C[C@H]3C2)cc1.Cl [Example 13, N-(4-{3-[(1R,5S)-3-Azabicyclo[3.1.0]hex-3-yl]propoxy}phenyl)-N-methylacetamide hydrochloride]	53%				duration of the reduction in the power of the slow delta waves [4]: 120 min; effect on power of the slow delta waves (1-4 Hz), cortical EEG [4]: significant reduction
124%	266%	COCC(=O)Nc1ccc(OCCCN2C[C@H]3C[C@H]3C2)cc1 [Example 14, N-(4-{3-[(1R,5S)-3-Azabicyclo[3.1.0]hex-3-yl]propoxy}phenyl)-2-methoxyacetamide]	36%				
		COCC(=O)Nc1ccc(OCCN2C[C@H]3C[C@H]3C2)cc1 [Example 15, N-(4-{2-[(1R,5S)-3-Azabicyclo[3.1.0]hex-3-yl]ethoxy}phenyl)-2-methoxyacetamide]	77%	83%	34%	−76%	

Compound	increase in endogenous cerebral concentrations of Nτ-methylhistamine ([8]; 10 mg/kg PO)	increase in endogenous cerebral concentrations of Nτ-methylhistamine ([8]; 30 mg/kg PO)	reduction in the immobility time [1]	decrease in the number of balls buried [2]	reduction in immobility [5]	reduction of the duration of sleeping caused by barbital [7]	other results
CC(=O)Nc1ccc(OCCCCN2C[C@H]3C[C@H]3C2)cc1 [Example 6, N-(4-{4-[(1R,5S)-3-Azabicyclo[3.1.0]hex-3-yl]butoxy}phenyl)acetamide]	106%	210%					
